Key:
[1] = Oral supplementation of healthy volunteers, levels in whole blood by UPLC-MSMS; format: in vivo, human
Protocol: β-Aspartyl-arginine was administered orally either alone or in combination with arginine, and in varying doses. Levels of dipeptide in blood are then monitored over time. The substance used for the experiments is a white powder of β-aspartyl-arginine. The purity is >99% and was determined by HPLC-analysis.
Experimental procedure: The volunteers were three healthy males (age 41 to 51 years, 173-187 cm height, 80-85 kg weight, BMI around 25 kg/m^2). […] The volunteers fasted throughout the experiment. Blood was collected from the fingertip using a lancet device and blotted onto sample cards and levels of dipeptide and amino acids were determined by UPLC-MSMS by an external service provider (Labor Blessing, Singen Germany).

[2] = oral consumption, human use data; cited from earlier work
rat liver extract = conditions: β-aspartyl-glycine as a substrate, Dorer et al.; cited from earlier work
Arginase (Bovine) = molecular target: T1, Arginase (Bovine) (Bos taurus, UniProt Q2KJ64); assay: Hydrolase susceptibility: arginase reaction, HPLC; format: in vitro ADME; conditions: 500 μg per ml, 100 U arginase, 37° C., pH 9.5, FIG. 5/6
T1 construct: purchased Alexis Bio/Sigma ALX-201-081-C020
T1 sequence (Q2KJ64 1-322): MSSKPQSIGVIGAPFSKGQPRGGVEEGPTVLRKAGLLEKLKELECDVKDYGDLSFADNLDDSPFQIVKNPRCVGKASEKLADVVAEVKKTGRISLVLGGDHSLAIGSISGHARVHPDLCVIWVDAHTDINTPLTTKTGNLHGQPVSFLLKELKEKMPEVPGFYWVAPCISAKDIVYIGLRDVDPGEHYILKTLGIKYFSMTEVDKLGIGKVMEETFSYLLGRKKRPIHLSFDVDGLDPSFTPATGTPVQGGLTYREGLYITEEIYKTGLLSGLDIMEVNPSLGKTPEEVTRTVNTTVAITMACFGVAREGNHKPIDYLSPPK
From the text: The release of free amino acids or modified dipeptide after treatment with these enzymes is monitored by HPLC.

[3] = molecular target: T2, Clostripain (Cl. histolyticum) (Hathewaya histolytica, UniProt P09870); assay: Hydrolase susceptibility: clostripain, HPLC; format: in vitro ADME; conditions: 500 μg dipeptide per ml, 10 U, 25° C., pH 7.4, 24 h, FIG. 7
T2 construct: purchased Sigma C0888-250UN
T2 sequence (P09870 191-526): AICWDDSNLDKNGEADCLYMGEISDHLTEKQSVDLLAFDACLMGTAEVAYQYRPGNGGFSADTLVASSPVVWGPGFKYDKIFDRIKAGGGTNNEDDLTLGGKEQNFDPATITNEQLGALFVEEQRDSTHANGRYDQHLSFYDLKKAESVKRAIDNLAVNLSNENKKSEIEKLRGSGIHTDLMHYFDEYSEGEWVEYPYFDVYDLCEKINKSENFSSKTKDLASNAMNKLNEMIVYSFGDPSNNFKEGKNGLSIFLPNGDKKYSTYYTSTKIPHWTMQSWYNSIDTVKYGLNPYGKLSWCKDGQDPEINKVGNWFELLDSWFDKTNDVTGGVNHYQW
T2 sequence (P09870 51-181): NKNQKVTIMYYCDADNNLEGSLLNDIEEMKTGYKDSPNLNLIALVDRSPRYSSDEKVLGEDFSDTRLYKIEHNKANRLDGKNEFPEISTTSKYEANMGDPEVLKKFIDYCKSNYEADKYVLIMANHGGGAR
Protocol: (§1) Arginase catalyzes the final step of the urea cycle and converts L-arginine into L-ornithine und urea. The other tested enzymes (proteases) are able to cleave α-peptide bonds involving aspartate and/or arginine. The release of free amino acids or modified dipeptide after treatment with these enzymes is monitored by HPLC. The substance used for the experiments is a white powder of β-L-aspartyl-L-arginine. The purity is >99% and was determined by HPLC-analysis.

[4] = molecular target: T3, Chymotrypsin (Bovine pancreas) (Bos taurus, UniProt P00766); assay: Hydrolase susceptibility: chymotrypsin, HPLC; format: in vitro ADME; conditions: 500 μg dipeptide per ml, 150 U, 30° C., pH 7.8, 24 h, FIG. 7
T3 construct: purchased Applichem A4531; host or cells: bovine pancreas
Protocol: as §1

[5] = molecular target: T4, Trypsin (Bovine pancreas) (Bos taurus, UniProt P00760); assay: Hydrolase susceptibility: trypsin, HPLC; format: in vitro ADME; conditions: 500 μg dipeptide per ml, 187.5 U, 25° C., pH 7.6, 24 h, FIG. 7
T4 construct: purchased Sigma T1426-50MG; host or cells: bovine pancreas
T4 sequence (P00760 24-246): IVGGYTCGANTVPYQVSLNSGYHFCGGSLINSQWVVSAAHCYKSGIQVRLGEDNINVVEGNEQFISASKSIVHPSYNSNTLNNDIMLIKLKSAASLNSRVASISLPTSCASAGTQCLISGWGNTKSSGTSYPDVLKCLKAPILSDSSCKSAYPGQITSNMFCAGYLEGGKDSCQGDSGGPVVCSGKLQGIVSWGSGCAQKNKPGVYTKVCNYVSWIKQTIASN
Protocol: as §1

[6] = tested on: Endoproteinase ArgC (mouse); assay: Hydrolase susceptibility: endoproteinase Arg-C, HPLC; format: in vitro ADME; conditions: 500 μg dipeptide per ml, 37° C., pH 8.5, 24 h, FIG. 7
Protocol: as §1

[7] = tested on: Proteinase N (Bacillus subtilis); assay: Hydrolase susceptibility: proteinase N, HPLC; format: in vitro ADME; conditions: 500 μg dipeptide per ml, 28.4 U, 37° C., pH 1-3, 24 h, FIG. 7
Protocol: as §1

[8] = tested on: bovine liver extract (β-aspartyl peptidases); assay: Cleavage of β-aspartyl dipeptide by bovine liver extract, HPLC; format: in vitro ADME; conditions: 10 mM dipeptide, 37° C.
From the text: β-aspartyl dipeptides contain an isoaspartyl peptide bond instead of the α bond common in proteins. It is therefore resistant to cleavage by most common proteases and peptidases. While this resistance is an advantage in the gut and in the bloodstream as it prevents cleavage before reaching the target tissue, it does raise the question as to how the dipeptide is introduced into the metabolism. Specific cytoplasmic isoaspartases (also known as β-aspartyl peptidases) have been found in mammalian tissues that are capable of cleaving a large variety of β-aspartyl dipeptides and related compounds. Specificity is towards the β-aspartyl moiety, with the identity of the moiety bound to this residue being of little importance. The overall reaction can be summarized as:
The substance used for the experiments is a white powder of β-L-aspartyl-L-arginine. The purity is >99% and was determined by HPLC-analysis.
Bovine liver purchased from a butcher was chosen as a model due to ready availability. Liver (50 g fresh weight) was homogenized using a Waring blender in four times its volume of ice-cold phosphate-buffered saline. Insoluble material was removed by centrifugation for 15 min at 9,000×g at 4° C. The supernatant (liver extract) was used immediately as a test solution.
Test setup: An aliquot of 900 μl of liver extract in a 1.5-ml polypropylene tube was placed into a heat block at 37° C. and allowed to heat up for 10 min. Then, a volume of 100 μl of a solution of 100 mM β-aspartyl-arginine phosphate-buffered saline was added to a give a final concentration of 10 mM. Samples of 100 μl were taken at 0, 1, 2, 3, and 4 h after addition of the dipeptide. Immediately after each sample was taken, it was added to a 1.5-ml screw-cap polypropylene tube containing 100 μl of 10% SDS in water and 700 μl of demineralized water. This tube was immediately heated to 100° C. for 10 min to stop any further enzyme activity. The tube was then cooled to room temperature and 100 μl of 10% KCl solution were added. […] The samples were then diluted appropriately with demineralized water and analyzed by HPLC.

[9] = equimolar oral doses of free arginine (as arginine aspartate salt), FIG. 3

**Q.** Which “time for blood concentrations to return to baseline” value [1, 9] does the source give for N=C(N)NCCC[C@H](N)C(=O)O [arginine, reference compound] here?
**A.** ≤ 4 h

**Q.** And the “time of fast increase in blood concentration” value [1, 9]?
**A.** two

**Q.** And the “effect of the 5-g dose on blood concentrations versus 2.5 g” value ([1]; oral free arginine (as arginine aspartate salt), FIG. 3)?
**A.** did not lead to substantially increased blood concentrations

**Q.** And the “oral amount beyond which arginine levels in blood do not increase” value [2]?
**A.** 2.5 g

**Q.** Which “hydrolysis activity of rat liver extract” value (rat liver extract) does the source give for N[C@@H](CC(=O)NCC(=O)O)C(=O)O [β-aspartyl-glycine] here?
**A.** 0.028 U/mg

**Q.** For N=C(N)NCCC[C@H](NC(=O)C[C@H](N)C(=O)O)C(=O)O [β-aspartyl-arginine, β-L-aspartyl-L-arginine], which “form in which the orally administered substance is taken up into the bloodstream” value ([1]; oral) is on record?
**A.** uncleaved dipeptide form

**Q.** What about the “period over which the concentration of the dipeptide in whole blood increased” value ([1]; oral 2.5 g or 5 g dipeptide in 400 ml water, fasted, three volunteers, FIG. 1) of the same molecule?
**A.** about six

**Q.** And the “time for which the dipeptide was still detectable in whole blood” value ([1]; oral 2.5 g or 5 g dipeptide, FIG. 1)?
**A.** 12 h

**Q.** And the “free arginine in blood after administration of the dipeptide” value ([1]; oral dipeptide alone)?
**A.** only detected at baseline levels

**Q.** And the “effect of doubling the oral dose on maximum concentration in whole blood” value ([1]; oral dose from 2.5 g to 5 g)?
**A.** approximately doubled

**Q.** What about the hydrolysis by arginase (Arginase (Bovine)) of the same molecule?
**A.** no significant difference to the start concentration

**Q.** What about the “change of dipeptide concentration after clostripain treatment” value [3] of the same molecule?
**A.** No significant difference

**Q.** And the “change of dipeptide concentration after chymotrypsin treatment” value [4]?
**A.** No significant difference

**Q.** And the “change of dipeptide concentration after trypsin treatment” value [5]?
**A.** No significant difference

**Q.** What about the “change of dipeptide concentration after endoproteinase Arg-C treatment” value [6] of the same molecule?
**A.** No significant difference

**Q.** And the “change of dipeptide concentration after proteinase N treatment” value [7]?
**A.** No significant difference

**Q.** What about the “cleavage by enzymes present in bovine liver” value ([8]; 0-4 h) of the same molecule?
**A.** is cleaved

**Q.** What about the “hydrolysis activity of liver extract per protein” value ([8]; bovine liver extract) of the same molecule?
**A.** 0.065 U/mg protein

**Q.** What about the “hydrolysis activity of liver extract” value ([8]; smaller timescale experiment, FIG. 8) of the same molecule?
**A.** 2.5 mg of dipeptide being hydrolyzed per gram of liver tissue per hour
